# Test results taken from article PMC10675528 (Pharmaceutics, 2023).
# Where two headings read alike, the source gives them in different places.
# Assays:
# [1] = Distribution coefficient (log D6.8), 1-octanol/pH 6.8 isotonic phosphate buffer; type: physicochemical; conditions: 1-octanol/isotonic phosphate buffer (pH 6.8)
# Experimental: To measure distribution coefficients of test compounds in 1-octanol/pH 6.8 isotonic phosphate buffer system, 1-octanol and pH 6.8 isotonic phosphate buffer was pre-saturated with each other. […] Distribution of test compounds in the organic phase/aqueous phase was determined by quantifying the concentration of each test compound in the organic or aqueous phase using a UV-Vis spectrophotometer (Shimadzu, Tokyo, Japan) at 263 nm. The following equation was employed to calculate the distribution coefficients (log D6.8). In the equation, CO is the initial concentration of a compound in the 1-octanol phase or aqueous phase; Cw is the equilibrium concentration of a compound in the aqueous phase; and COc is the equilibrium concentration of a compound in 1-octanol: log D6.8=log(COc/CW)=log(COc/(CO−COc]
# [2] = Incubation in the cecal contents of rats (conversion to RLZ); type: in vitro ADME, rat; conditions: for conversion to RLZ in cecal contents (in words): 1 mM, 10% cecal contents, anaerobic
# Experimental: (§1) Male Sprague-Dawley rats (250–260 g) were euthanized using CO2 gas, collecting the intestinal tract contents separately from the small intestine and cecum. The cecal contents were collected in an atmospheric bag (AtmosBag, Sigma, St. Louis, MO, USA) filled with N2 gas. The contents were suspended in pH 6.8 isotonic phosphate buffer (20%, w/v). To 5 mL of the cecal and small intestinal suspensions, each solution (5 mL) of RAS, SAR, and SGR (2.0 mM) dissolved of pH 6.8 isotonic phosphate buffer was added, and then incubated at 37 °C. Incubation with the cecal contents was conducted in the bag filled with N2 gas. A 0.5 mL portion of the mixtures was transferred to a microtube, followed by centrifugation at 10,000× g at 4 °C for 10 min. Supernatants (0.3 mL) were subjected to extraction with EA (0.3 mL) and subsequent centrifugation at 10,000× g at 4 °C for 7 min. The organic layer (0.2 mL) transferred to a new microtube was evaporated, followed by the addition of mobile phase A (0.2 mL).
# [3] = Incubation in the small intestinal contents of rats; type: in vitro ADME; conditions: rat small intestinal contents; for release of RLZ in the small intestinal contents: Supplementary Figure S2; for change in concentration in small intestinal contents: 12 h
# Experimental: as §1
# [4] = system: GSK3β; test: p-GS level in the inflamed distal colon (Western blot); type: in vivo, Sprague-Dawley rats; conditions: oral once daily for 6 days
# Experimental: (§2) Experimental colitis was induced in rats as previously described. […] The rats in each group were treated orally once daily, and the medication began three days after the induction of inflammation, and continued for six days. Twenty-four hours after the last medication, the anticolitic effects of drugs were evaluated assessing macroscopic and microscopic indices. Colonic-damage scores (CDS) were assigned using the modified scoring system shown in Supplementary Table S1. Colonic damage was scored using 4 independent observers blinded to the treatment conditions. Myeloperoxidase (MPO) activity was determined in the inflamed distal colon (4 cm) as previously described.
# To prepare samples for Western blot analysis, tissue (distal colon) samples (0.2 g) were minced and homogenized in 2.0 mL of pre-chilled radioimmunoprecipitation assay (RIPA) buffer, which was agitated on ice for 0.5 h, and then centrifuged at 10,000× g at 4 °C for 10 min. The centrifuged lysates were subjected to protein quantification using the bicinchoninic acid reagent (Thermo Fisher Scientific, Waltham, MA, USA). […] The Western blot images were quantified using Image Lab software (version 5.2 build 14; Bio-Rad, Hercules, CA, USA). The mean of the quantified values was presented with the Western blot images in the figures (n = 3 for cell experiments, n = 5 for animal experiments).
# [5] = system: DNBS-induced rat colitis; test: DNBS-induced rat colitis, anticolitic effects; type: in vivo, Sprague-Dawley rats
# Experimental: as §2
# To prepare samples for Western blot analysis, tissue (distal colon) samples (0.2 g) were minced and homogenized in 2.0 mL of pre-chilled radioimmunoprecipitation assay (RIPA) buffer, which was agitated on ice for 0.5 h, and then centrifuged at 10,000× g at 4 °C for 10 min. The centrifuged lysates were subjected to protein quantification using the bicinchoninic acid reagent (Thermo Fisher Scientific, Waltham, MA, USA). SDS-PAGE on a 7.5 or 10% gel was used for Western blot analysis of tissue lysates. To detect glycogen synthase (GS), phosphorylated GS (p-GS), cyclooxygenase (COX)-2, and inducible nitric oxide synthase (iNOS), anti-GS (Santa Cruz Biotechnology, Dallas, TX, USA), anti-p-GS (Cell Signaling Technology, Danvers, MA, USA), anti-COX-2 (sc-365374, Santa Cruz Biotechnology), and anti-iNOS (NOS-2) antibody (sc-7271, Santa Cruz Biotechnology) were used. SuperSignal chemiluminescence substrate (Thermo Fisher Scientific, Waltham, MA, USA) was used to visualize bands. α-Tubulin (Santa Cruz Biotechnology) was used as a loading control. The Western blot images were quantified using Image Lab software (version 5.2 build 14; Bio-Rad, Hercules, CA, USA). The mean of the quantified values was presented with the Western blot images in the figures (n = 3 for cell experiments, n = 5 for animal experiments).
# ELISA kits were used to determine the level of CINC-3 and IL-10 in the inflamed distal colon as described previously. The ELISA was performed according to the manufacturer’s instructions.
# [6] = Concentration of the conjugates in the blood after oral administration; type: in vivo, Sprague-Dawley rats; conditions: equimolar dose, 4, 8, 12 h, Supplementary Figure S4
# Experimental: Male Sprague-Dawley rats fasted for 24 h except for water. […] At 4, 8, and 12 h after the oral treatment, the plasma (0.3 mL) was obtained from the blood samples (collected via cardiac puncture) centrifuged at 10,000× g at 4 °C for 10 min. The plasma (0.25 mL) was extracted with EA (0.7 mL), and the organic layer (0.5 mL) was evaporated and dissolved in mobile phase A or B (0.1 mL). After filtration through a membrane filter (0.45 μm), the filtrate (20 μL) was injected to HPLC. To determine the concentrations of SAR and RAS in the blood, MeOH (0.9 mL) was added to the plasma (0.1 mL) and centrifuged at 10,000× g at 4 °C for 10 min. After filtration of the supernatants through a membrane filter (0.45 μm), the filtrate (20 μL) was injected to HPLC.
# [7] = RLZ concentration in blood (plasma) after oral administration; type: in vivo, Sprague-Dawley rats
# Experimental: The plasma (0.25 mL) was extracted with EA (0.7 mL), and the organic layer (0.5 mL) was evaporated and dissolved in mobile phase A or B (0.1 mL). After filtration through a membrane filter (0.45 μm), the filtrate (20 μL) was injected to HPLC. To determine the concentrations of SAR and RAS in the blood, MeOH (0.9 mL) was added to the plasma (0.1 mL) and centrifuged at 10,000× g at 4 °C for 10 min. After filtration of the supernatants through a membrane filter (0.45 μm), the filtrate (20 μL) was injected to HPLC.
# [8] = cited from earlier work
# [9] = 1-octanol/pH 6.8 buffer; cited from earlier work
# [10] = Chemical stability in pH 1.2 and pH 6.8 buffers; type: physicochemical; conditions: 0.1 mM, 12 h
# Experimental: To test the chemical stabilities of SAR and SGR, the two compounds (0.1 mM) were incubated for 12 h in pH 1.2 HCl-NaCl buffer and pH 6.8 isotonic phosphate buffer, and change in the drug concentrations was monitored using HPLC analysis.
# [11] = system: Caco-2 cell monolayer; test: Cell permeability assay using Caco-2 monolayers; type: in vitro ADME; conditions: 500 µM apical, up to 24 h, compared with RAS
# Experimental: Caco-2 cells (4 × 10^5 per insert) were seeded in Transwell 6-well inserts with a pore size of 0.4 μm (SPL Inc., Houston, TX, USA). DMEM containing 1% penicillin/streptomycin was added to the basolateral (3.0 mL) and apical (insert) compartments (2.0 mL). The cells were grown until the cell monolayer’s transepithelial electrical resistance value (EMD Millipore, Billerica, MA, USA) reached 2000 Ω.cm^2. […] At appropriate time intervals, the drug concentration in the basolateral compartment was determined using HPLC.
# [12] = oral once daily for 6 days, ELISA
# [13] = SAR L and H doses, dose-dependent, Western blot
Structure (SMILES),logD at 12 h [1],melting point,release of RLZ in the small intestinal contents [3],conjugate (prodrug) in the blood [6],change in concentration in buffer solutions [10],change in concentration in small intestinal contents [3],conversion to RLZ in cecal contents (in words) [2],level of p-GS in the inflamed colon [4],"level of IL-10 in the inflamed colon [5, 12]",also measured
"N[C@@H](CC(=O)O)C(=O)Nc1nc2ccc(OC(F)(F)F)cc2s1 [AR, N-(L-aspart-1-yl)riluzole]",0.8,163 °C,released a substantial amount of RLZ,–,–,–,conversion percentage to RLZ was lower than that of SAR,–,–,–
"N[C@@H](CCC(=O)O)C(=O)Nc1nc2ccc(OC(F)(F)F)cc2s1 [GR, N-(L-glutam-1-yl)riluzole]",1,–,released a substantial amount of RLZ,–,–,–,–,–,–,–
"O=C(O)c1cc(/N=N/c2nc3ccc(OC(F)(F)F)cc3s2)ccc1O [RAS, reference compound]",–,–,–,detected,–,–,–,substantially diminished,further augmented,"peak blood concentration of RLZ relative to that after oral RLZ ([7]; oral, equimolar doses (10 mg/kg RLZ)): approximately one-fifth; peak blood concentration of RLZ relative to that after oral RLZ [8]: approximately one-fifth; distribution coefficient (log D6.8) [9]: 2.1"

# The next lines start with results.
logD at 12 h [1],melting point,release of RLZ in the small intestinal contents [3],conjugate (prodrug) in the blood [6],change in concentration in buffer solutions [10],change in concentration in small intestinal contents [3],Structure (SMILES),conversion to RLZ in cecal contents (in words) [2],level of p-GS in the inflamed colon [4],"level of IL-10 in the inflamed colon [5, 12]",also measured
-2.1,202 °C (dec.),–,not detectable,No significant change,No significant change,"O=C(O)CCC(=O)N[C@@H](CC(=O)O)C(=O)Nc1nc2ccc(OC(F)(F)F)cc2s1 [SAR, (N-succinyl-L-aspart-1-yl)riluzole]",readily converted to RLZ in a time-dependent manner,substantially diminished,further augmented,"MPO activity in the inflamed distal colon ([5]; SAR L and H doses, dose-dependent): lowered; CINC-3 level in the inflamed distal colon ([5]; SAR L and H doses, dose-dependent, ELISA): lowered; COX-2 level in the inflamed distal colon [5, 13]: lowered; iNOS level in the inflamed distal colon [5, 13]: lowered; colonic damage and inflammation compared with SSZ ([5]; SAR even at lower dose vs SSZ 30 mg/kg): more effective than SSZ; all anticolitic indices compared with RAS ([5]; equimolar dose (equivalent to 10 mg/kg RLZ)): significantly superior to RAS; colonic damage (CDS, H&E staining) ([5]; oral once daily for 6 days, SAR equivalent to 5 (L) and 10 (H) mg/kg RLZ): mitigated the pathological state of the inflamed colon at both doses; AR detected during incubation of SAR with the cecal contents ([2]; cecal contents): no AR was detected; permeation through Caco-2 cell monolayer [11]: less efficient than RAS; systemic absorption of RLZ (RLZ in blood, in words) ([7]; oral SAR 19.2 mg/kg): barely detectable; maximal plasma concentration of RLZ relative to oral RAS ([7]; oral, equimolar dose): approximately one-seventh"
-2,–,–,–,No significant change,No significant change,"O=C(O)CCC(=O)N[C@@H](CCC(=O)O)C(=O)Nc1nc2ccc(OC(F)(F)F)cc2s1 [SGR, (N-succinyl-L-glutam-1-yl)riluzole]",resistant to cecal conversion of RLZ,–,–,–
